The results in this text go back to publication PMC12691742, “Anti-Cancer Outcome of Glucocorticoid Receptor Transrepression by Synephrine Derivatives in Hematological Malignancies” (International Journal of Molecular Sciences, 2025).

The subject of the experiment is NF-kB activity in K562 and Granta cells. Nature of the experiment: NF-kB.Luc reporter assay, positive control. Type of experiment: cell-based. To be noted: TPA 5 ng/mL or 10 ng/mL (method), 5 h. As to the method:
We analyzed GR TR function using an NF-kB.Luc reporter assay with the irritating inflammatory agent phorbol 13-acetate 12-myristate (TPA) as an inducer of NF-kB signaling and positive control.
Figure 4 Effects of synephrine derivatives on GR transrepression in Granta lymphoma and K562 leukemia cells. (A) K562 and Granta cells stably infected with the lentiviruses bearing the NF-kB luciferase reporter. Cells were incubated for 5 h with the solvent (control), TPA (5 ng/mL), 4S-C2 (10 µM), 8S-E3 (10 µM), 10S-E2 (1 µM), or 13S-G2 (1 µM). Luciferase activity was determined as described in the Materials and Methods section. (B) IL1-α and IL6 mRNA expression in K562 and Granta cells. […] The mean ± SD was calculated for three individual samples/condition (n = 3). […]
Lentiviral stocks were generated using the lentiviral expression vector NF-kB. […] The infection efficiency exceeded 90% (tracked by GFP fluorescence).
Cells (10^4 cells/well in a 24-well plate), stably expressing Firefly Luciferase under the NF-kB promoter, were treated for 5 h with TPA (12-O-tetradecanoylphorbol-13-acetate, Boston, MA, USA, 10 ng/mL), 4S-C2 (10 µM), 8S-E3 (10 µM), 10S-E2 (1 µM), 13S-G2 (1 µM), or the vehicle. Luciferase activity was measured as described using a commercial Luciferase Assay (“Promega”, Madison, WI, USA) and Luminometer TD 20/20 (“Turner Design Instruments”, San Jose, CA, USA). […]

Turning to `CCCCCCCCCCCCCC(=O)O[C@@H]1[C@@H](C)[C@@]2(O)[C@@H](C=C(CO)C[C@]3(O)C(=O)C(C)=C[C@@H]23)[C@@H]2C(C)(C)[C@]12OC(C)=O` [TPA, 12-O-tetradecanoylphorbol-13-acetate], the NF-kB activation is given as 5-9 fold.
